Experimental findings from patent US7223733B2, “Modulation of TRIP-Br function and method of treating proliferative disorders” (National University of Singapore, priority 2004, dated 2007) are described below.

Where no end group is shown, it is not given here. [invdT] = inverted (3'-3') thymidine

Holding throughout (assay type): cell-based, human
The subject of data set [1] is E2F-responsive luciferase reporter (pGL3-TATA-6xE2F-Luc). The experiment in a line: E2F-responsive luciferase reporter assay in U2OS cells. The following applies: 50 μM, 5 h. How it is done: DNA Transfection and Sequential β-Galactosidase/Luciferase Assay. For luciferase reporter assays, U2OS cells were cultured in 6-well dishes and transfected 24 h later with various reporter plasmids by the calcium precipitation method as previously described (Martin, K., et al. Nature 375, 691-694 (1995)). 24 h following precipitate removal, cells were exposed for 5 h to either vehicle (0.5% DMSO) or 50 μM of decoy peptide, prior to harvesting. Cells were scraped in 200 μl of lysis buffer and a single 10 μl aliquot of lysate was immediately used for sequential measurement of β-galactosidase and luciferase activity using the Dual Light System (Tropix). For protein overexpression experiments, U2OS cells were cultured in 6-well plates at a density of 1×10^5 cells/well and transfected 24 h later with Superfect reagent (QIAGEN).
FIG. 3: Analysis of E2F-responsive transcription in U2OS cells in response to decoy peptide treatment. […] Values represent the average +/− standard deviation of at least two independent experiments; (B) Semi-quantitative RT-PCR analysis on total RNA for dhfr, cyclin-E, cyclin A2, PCNA, DNA Pola and cdc2 expression in U2OS cells exposed for 16 h to either vehicle (0.5% DMSO) or 50 μM of the indicated decoy peptides. […]
A general note: Reporter assays use an easily measured gene product as a stand-in for the process of interest.

The test system of data set [2] is CNE2 (nasal pharyngeal carcinoma). The experiment in a line: Anti-proliferative phenotypes in CNE2 cells. The following applies: data not shown.
Another data set has as its system cyclins A, D and E. The experiment in a line: Western blot of cyclins A, D and E in U2OS cells exposed to decoy peptides. The following applies: U2OS, 5, 10 or 20 μM, 48 h. How it is done: Denaturing SDS-PAGE and western blotting. Proteins from whole cell lysate and IP complexes were separated using standard denaturing polyacrylamide gel electrophoresis as described previously (Hsu, S. I. H., et al. EMBO J 20, 2273-2285 (2001)).
FIG. 8: The role(s) of the TRIP-Br integrator function in cyclin E regulation. (A) Western blot analysis of the expression of cyclins A, D and E in whole cell extracts derived from U2OS cells exposed to 5, 10 or 20 μM of decoy peptides for 48 h. Cdk2 served as a loading control; (B) Dosage-dependent effects of decoy peptides on Fbxw7 expression. U2OS cells exposed to 5, 10 or 20 μM of decoy peptides were analyzed for Fbxw7 mRNA transcript levels by semi-quantitative RT-PCR. H-actin was co-amplified as an internal control; (C) cyclin-E and Fbxw7 expression was analyzed by semi-quantitative RT-PCR using total RNA from sub-confluent U2OS ER-E2F-1 cells grown with or without OHT and/or cycloheximide (CHX) for 2 h as indicated. H-actin was included as an internal control.
Background: In western blotting, separated proteins are transferred to a membrane and probed.

A further data set has as its system CCNE gene. The data set can be described thus: Semi-quantitative RT-PCR of CCNE in serum-stimulated WI-38 cells. The conditions noted are these: WI-38, serum stimulation. Here is the method: Semi-quantitative RT-PCR. Following various treatments, WI-38 cells in 6-well culture dish were subjected to total RNA extraction using the TRIZOL® Reagent (Life Technologies). Total RNA (4 μg) was reversed transcribed using oligo-dT and M-MLV reverse transcriptase in a total reaction volume of 20 μl. Polymerase Chain Reactions (PCR) were carried out on 3 μl cDNA sample in the presence of […] deoxyribonucleotide triphosphates (dNTPs) and 40 μM of specific primer pairs in a total reaction volume of 50 μl. The cycling profile for PCR was as follow: 30 cycles of denaturation (94° C., 30 sec), annealing (51° C., 30 sec) and extension (72° C., 2 min), with a 2-minute initial denaturation step at 94° C. and a 10-minute polishing step at 72° C. at the end. Sequences of gene-specific primers are available upon request. Post-PCR samples were analyzed by agarose gel electrophoresis.
FIG. 14: (A) E-Br1 or E-Br2 attenuates mitogen-stimulated CCNE gene induction. Sub-confluent WI-38 cells were serum-starved for 72 h. Following DNA enzyme transfection, the cultures were re-stimulated with serum and allowed to proliferate. After 20 h, cells were harvested and total RNA extracted for semi-quantitative RT-PCR to assess CCNE expression. β-actin was included as an internal control. PCR products were resolved by agarose gel electrophoresis and ethidium bromide-stained DNA bands were visualized under UV. […]

For “ERQIKIWFQNRRMKWKKTGFLTDLTLDDILFADID (ERQIKIWFQNRRMKWKKTGFLTDLTLDDILFADID-NH2) [*Br2]”, the “transcriptional activity of the E2F-responsive luciferase reporter” value in data set [1] was “decreased the transcriptional activity”. Also, the “response of CNE2 cells” value in data set [2] is given as “in manners similar to those exhibited by U2OS cells”. In the data set with cyclins A, D and E, the “cyclin E protein level” value is reported as “dose-dependent accumulation of cyclin E protein”; the “protein levels of cyclin D1 and cyclin A2” value is on record as “without affecting the protein levels”.
As to “5′-T TACCCAACAGGCTAGCTACAACGAATATCACA-3′ (DNA TTACCCAACAGGCTAGCTACAACGAATATCACA; DNA, 3' [invdT], backbone not given here) [E-Br2]”, the “serum-induced CCNE gene activation” value with CCNE gene was “suppressed”.
“5′-T TGCTCAGCAGGCTAGCTACAACGACTTGCTCA-3′ (DNA TTGCTCAGCAGGCTAGCTACAACGACTTGCTCA; DNA, 3' [invdT], backbone not given here) [E-Br1]”: the “serum-induced CCNE gene activation” value in the data set with CCNE gene is on record as “suppressed”.
On to “ERQIKIWFQNRRMKWKKATGCLLDDGLEGLFEDID (ERQIKIWFQNRRMKWKKATGCLLDDGLEGLFEDID-NH2) [*Br1]”, for which, in data set [1], the “transcriptional activity of the E2F-responsive luciferase reporter” value is recorded as “decreased the transcriptional activity”. Besides, the “response of CNE2 cells” value in data set [2] is listed as “in manners similar to those exhibited by U2OS cells”. Besides, in the data set on cyclins A, D and E, the “cyclin E protein level” value is “dose-dependent accumulation of cyclin E protein”; the “protein levels of cyclin D1 and cyclin A2” value was “without affecting the protein levels”.
